In patent US20260083751A1, “ALLOSTERIC MODULATORS OF ANDROGEN RECEPTOR COACTIVATOR RECRUITMENT FOR CRPC THERAPY” (University of Pittsburgh – Of the Commonwealth System of …, priority 2022, published 2026) one finds IC50 data, which are given here for 14 compounds.

A word on the IC50: it is the point on the concentration scale where inhibition reaches its midpoint.

Each structure is given as a SMILES string.

The first experiment deals with T1, AR-TIF2 PPI (Homo sapiens, UniProt P10275).
T1 construct: AR-LBD residues (662-919) were incorporated into one biosensor; expressed in transfected cells; host or cells: U-2 OS osteosarcoma cells, coinfected with recombinant adenoviruses
T1 sequence (P10275 662-919): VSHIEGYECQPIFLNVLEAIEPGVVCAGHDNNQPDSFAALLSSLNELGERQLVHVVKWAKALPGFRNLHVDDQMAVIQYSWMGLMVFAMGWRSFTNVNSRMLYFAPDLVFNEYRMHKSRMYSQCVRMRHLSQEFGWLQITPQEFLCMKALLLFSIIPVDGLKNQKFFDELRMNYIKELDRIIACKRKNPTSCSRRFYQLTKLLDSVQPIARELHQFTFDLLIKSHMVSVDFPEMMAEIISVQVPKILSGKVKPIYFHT
Briefly: AR-TIF2 PPIB HCS assay: inhibition of DHT-induced AR-TIF2 PPI formation (compound then DHT). Format: cell-based. Conditions: U-2 OS cells, 25 nM DHT; read-out: Inhibition DHT-induced AR-TIF2 PPI Formation IC50. The procedure: AR-TIF2 Protein-Protein Interaction Biosensor Assay: The AR-TIF2 PPIB HCS assay was performed in U-2 OS osteosarcoma cells as described previously (Fancher et al., Assay Drug Dev Technol. 2016, 14:453-477; Fancher et al., Assay Drug Dev Technol. 2018, 16:297-319; Hua et al., Assay Drug Dev Technol. 2014, 12:395-418; Hua et al., Methods Mol Biol. 2018, 1683:211-227). Briefly, U-2 OS cells were coinfected with recombinant adenovirus biosensor expression constructs and seeded at 2,500 cells per well in 384-well collagen-coated microplates (Greiner Bio-One #781956) and plates were incubated overnight at 37° C. in 5% CO2 and 95% humidity. […] After the appropriate time, assay plates were fixed by transfer of 50 μL of pre-warmed (37° C.) 7.4% formaldehyde and 2 μg/mL Hoechst 33342 in PBS and incubation at room temperature for 30 minutes. Liquid was aspirated, plates were washed twice with 85 μL PBS, leaving the final wash in the plate. Plates were sealed with adhesive aluminum plate seals, and fluorescent images of three fields of view were acquired in the DAPI (Hoechst stained nuclei), FITC (TIF2-GFP) and Texas Red (AR-RFP) channels on an ImageXpress® Micro (IXM) automated HCS platform (Molecular Devices LLC, Sunnyvale, CA) using a 10× Plan Fluor 0.3 NA objective. Images were analyzed using the Translocation Enhanced (TE) image analysis module of the MetaXpress® software (Molecular Devices, LLC, San Jose, CA) as described previously (Fancher et al., Assay Drug Dev Technol. 2016, 14:453-477; Fancher et al., Assay Drug Dev Technol. 2018, 16:297-319; Hua et al., Assay Drug Dev Technol. 2014, 12:395-418; Hua et al., Methods Mol Biol. 2018, 1683:211-227).
For the 96-well AR-LBD H^3-DHT radioligand binding assay, eight minimum and maximum plate control wells were utilized to normalize the data. For the PC cell line growth inhibition assays the DMSO control data from the TO and T72 assay plates was used to assess the dynamic range of the T0 to T72 cell growth, and to calculate S:B ratios and Z′-factor coefficient statistics for the assay signal window (T0 to T72). To normalize the 72 h compound exposure PC growth inhibition data, the signals from the compound treated wells were processed and expressed as % of the T72 DMSO plate controls. IC50 and GI50 values for each of the bioassays were calculated using GraphPad Prism 9 software to plot and fit data to curves using the Sigmoidal dose response variable slope equation Y=Bottom+[Top-Bottom]/[1+10^(Log EC50−X)*HillSlope].
A positional AR-TFI2 protein-protein interaction biosensor (PPIB) assay was used to identify small molecules that inhibited DHT-induced formation of AR-TIF2 PPIs and/or disrupted pre-existing AR-TIF2 PPIs (Fancher et al., Assay Drug Dev Technol 2016, 14(8):453-477; Fancher et al., Assay Drug Dev Technol 2018, 16(6):297-319; Hua et al., Assay Drug Dev Technol 2014, 12:395-418; Hua et al., Methods Mol biol 2018, 1683:211-227). AR-LBD residues (662-919) were incorporated into one biosensor and TIF2 residues (725-840) containing the 3rd NR box LXXLL motif into the second interacting biosensor partner (Id.) The AR-TIF2 PPIB recapitulates the orthosteric ligand (OSL)-induced translocation of AR from the cytoplasm into the nucleus where PPIs with TIF2 result in colocalization of both biosensors in the nucleolus. Using three libraries, a total of 143,535 compounds were screened—a 10,000-compound ChemDiv PPI focused diversity library, a 50,000-compound ChemBridge diversity library, and a 83,535-compound library provided by the NCI's Chemical Biology Consortium. The 10K and 50K diversity libraries were subsets of 142K and 810K parent libraries, enabling screening of a representative subset of >1×10^6 compounds. AR-TIF2 PPI inhibitor and disruptor actives were confirmed in the HCS assay and counter screens designed to identify and exclude nuisance/interference or non-selective compounds (Fancher et al., Assay Drug Dev Technol 2018, 16(6):297-319). […]
With `Cc1nsc(NC(=O)N2CCC(Sc3ccccc3C)CC2)n1` [Compound S2-6], the concentration for half-maximal inhibition (IC50) is 0.62 µM. Same read-out and setting: the result for `Cc1ccccc1-c1cc(O)c2c(c1)CN(c1cc(N)ncn1)CCO2` [Compound S1-4] reads above 100 µM. The same measure, in the same setting: the result for `CNC(=O)c1ccc(-c2c[nH]c3c(C)cccc23)cc1` [Compound S3-21] reads around 36 µM; that for `Cc1ccccc1-c1cc(O)c2c(c1)CN(c1nc(C(N)=O)cs1)CCO2` [Compound S1-1], 5.38 µM. Same read-out and setting: the result for `Cc1nsc(NC(=O)N2CCC(Cn3ccnc3)CC2)n1` [Compound S2-7] reads above 100 µM; that for `Cc1c(-c2ccccc2F)[nH]c2ccc(CNC(=O)CCc3cn[nH]c3)cc12` [Compound S3-11], 3.11 µM.

The same experiment, now with this note: compound then DHT; U-2 OS cells; read-out: C then D IC50.
Consider `Cc1ccccc1-c1cc(O)c2c(c1)CN(c1cc(N)ncn1)CCO2` [Compound S1-4], for which the half-maximal inhibitory concentration (IC50) was above 100 µM. Regarding `Cc1cccc2c(-c3ccc(O)c(F)c3)c[nH]c12` [Compound S3-17], the half-inhibitory concentration (IC50) came to 3.87 µM. On to `Cc1ccccc1-c1cc(O)c2c(c1)CN(c1nccs1)CCO2` [Compound S1-3], for which the IC50 stood at 30.5 µM. Same read-out and setting: the result for `CNC(=O)c1ccc(-c2c[nH]c3c(C)cccc23)cc1` [Compound S3-21] reads 36.1 µM; that for `Cc1nc(N)cc(N2CCOc3c(O)cc(-c4ccccc4C)cc3C2)n1` [Compound S1-2], 14.5 µM; that for `Cc1c(-c2ccccc2F)[nH]c2ccc(CNC(=O)CCc3cnccn3)cc12` [Compound S3-12], 5.13 µM. In the case of `Cc1c(-c2ccccc2F)[nH]c2ccc(CNC(=O)c3ccc(CO)o3)cc12` [Compound S3-14], the IC50 was found to be 2.42 µM. On to `Cc1c(-c2ccc(F)cc2)[nH]c2ccc(CNC(=O)c3ccc(CO)o3)cc12` [Compound S3-15], for which the IC50 was found to be 6.7 µM.

On to `Cc1ccccc1-c1cc(O)c2c(c1)CN(c1nc(C(N)=O)cs1)CCO2` [Compound S1-1], for which the half-maximal inhibitory concentration (IC50) was found to be 5.64 µM. Same read-out and setting: the result for `COc1cc(-c2ccc(C)s2)cc2c1OCCN(c1nc(C(N)=O)cs1)C2` [Compound S1-5] reads 26.2 µM; that for `CC(=O)NCCC(=O)NCc1ccc2[nH]c(-c3ccccc3F)c(C)c2c1` [Compound S3-13], 7.98 µM; that for `Cc1nsc(NC(=O)N2CCC(Cn3ccnc3)CC2)n1` [Compound S2-7], above 100 µM. Take `Cc1c(-c2ccccc2F)[nH]c2ccc(CNC(=O)CCc3cn[nH]c3)cc12` [Compound S3-11]: the half-maximal inhibitory concentration (IC50) was 3.25 µM.
